Test results taken from BindingDB's records for doi:10.1016/j.bioorg.2016.07.006 (Dumlupinar University, 2016).

Experiments:
Carbonic anhydrase 1 = Carbonic anhydrase 1 (Homo sapiens, UniProt P00915); assay: In vitro Carbonic Anhydrase Inhibition Assay
Description: (§1) CA activity was measured according to the method described by Verpoorte et al. in inhibition studies, spectrophotometrically [Biochem., 242:4221-4229]. The reaction mixture contains 50 mM Tris-SO4 buffer (pH = 7.4), 3 mM 4-nitrophenylacetate and enzyme solution in 1 ml total volume. A reference measurement was done by using the same cuvette without enzyme solution. The measurement was repeated in triplicate at each concentration of 5-amino-1,3,4-thiadiazole-2-sulfonamide containing pyrazole derivatives.

Carbonic anhydrase 2 = Carbonic anhydrase 2 (Homo sapiens, UniProt P00918); assay: In vitro Carbonic Anhydrase Inhibition Assay
Description: as §1

Carbonic anhydrase 1, sequence (P00915 whole entry): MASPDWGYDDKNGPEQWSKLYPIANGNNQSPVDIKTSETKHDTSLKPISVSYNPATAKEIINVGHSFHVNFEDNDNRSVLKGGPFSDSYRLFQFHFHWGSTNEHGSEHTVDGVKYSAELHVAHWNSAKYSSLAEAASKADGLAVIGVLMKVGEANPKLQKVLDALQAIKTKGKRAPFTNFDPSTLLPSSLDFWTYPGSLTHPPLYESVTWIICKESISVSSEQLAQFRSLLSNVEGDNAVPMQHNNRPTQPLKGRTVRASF

SMILES | Ki (Carbonic anhydrase 1) [nM] | Ki (Carbonic anhydrase 2) [nM]
NS(=O)(=O)c1nnc(NC(=O)c2nn(-c3cccc(NN=C(C(=O)c4ccccc4)C(=O)c4ccccc4)c3)c(-c3ccccc3)c2C(=O)Nc2nnc(S(N)(=O)=O)s2)s1 [1-(3-(2-(1,3-Dioxo-1,3-diphenylpropan-2-ylidene)hydrazinyl)phenyl)-5-phenyl-N3,N4-bis(5-sulfamoyl-1,3,4-thiadiazol-2-yl)-1Hpyrazole-3,4-dicarboxamide (8)] | 4000 | 878
CC(=O)/C(=N/Nc1cccc(-n2nc(C(=O)Nc3nnc(S(N)(=O)=O)s3)c(C(=O)Nc3nnc(S(N)(=O)=O)s3)c2-c2ccccc2)c1)C(=O)c1ccccc1 [1-(3-(2-(1,3-Dioxo-1-phenylbutan-2-ylidene)hydrazinyl)phenyl)-5-phenyl-N3,N4-bis(5-sulfamoyl-1,3,4-thiadiazol-2-yl)-1H-pyrazole-3,4-dicarboxamide (6)] | 119 | 119
CC(=O)C(=NNc1cccc(-n2nc(C(=O)Nc3nnc(S(N)(=O)=O)s3)c(C(=O)Nc3nnc(S(N)(=O)=O)s3)c2-c2ccccc2)c1)C(C)=O [1-(3-(2-(2,4-Dioxopentan-3-ylidene)hydrazinyl)phenyl)-5-phenyl-N3,N4-bis(5-sulfamoyl-1,3,4-thiadiazol-2-yl)-1H-pyrazole-3,4-dicarboxamide (5)] | 767 | 494
CC1(C)CC(=O)C(=NNc2cccc(-n3nc(C(=O)Nc4nnc(S(N)(=O)=O)s4)c(C(=O)Nc4nnc(S(N)(=O)=O)s4)c3-c3ccccc3)c2)C(=O)C1 [1-(3-((2-Hydroxy-4,4-dimethyl-6-oxocyclohex-1-en-1-yl)diazenyl)phenyl)-5-phenyl-N3,N4-bis(5-sulfamoyl-1,3,4-thiadiazol-2-yl)-1H-pyrazole-3,4-dicarboxamide (14)] | 787 | 288
NS(=O)(=O)c1nnc(NC(=O)c2nn(-c3cccc(NN=C4C(=O)CCCC4=O)c3)c(-c3ccccc3)c2C(=O)Nc2nnc(S(N)(=O)=O)s2)s1 [1-(3-((2-Hydroxy-6-oxocyclohex-1-en-1-yl)diazenyl)phenyl)-5-phenyl-N3,N4-bis(5-sulfamoyl-1,3,4-thiadiazol-2-yl)-1H-pyrazole-3,4-dicarboxamide (13)] | 508 | 157
NS(=O)(=O)c1nnc(NC(=O)c2nn(-c3cccc(/N=N/c4c(O)ccc5ccccc45)c3)c(-c3ccccc3)c2C(=O)Nc2nnc(S(N)(=O)=O)s2)s1 [1-(3-((2-Hydroxynaphthalen-1-yl)diazenyl)phenyl)-5-phenyl-N3,N4-bis(5-sulfamoyl-1,3,4-thiadiazol-2-yl)-1H-pyrazole-3,4-dicarboxamide (4)] | 1660 | 411
CCOC(=O)C(=NNc1cccc(-n2nc(C(=O)Nc3nnc(S(N)(=O)=O)s3)c(C(=O)Nc3nnc(S(N)(=O)=O)s3)c2-c2ccccc2)c1)C(=O)OCC [Diethyl 2-(2-(3-(5-phenyl-3,4-bis((5-sulfamoyl-1,3,4-thiadiazol-2-yl)carbamoyl)-1H-pyrazol-1-yl)phenyl)hydrazono)malonate (10)] | 461 | 203
CCOC(=O)/C(=N\Nc1cccc(-n2nc(C(=O)Nc3nnc(S(N)(=O)=O)s3)c(C(=O)Nc3nnc(S(N)(=O)=O)s3)c2-c2ccccc2)c1)C(C)=O [Ethyl 3-oxo-2-(2-(3-(5-phenyl-3,4-bis((5-sulfamoyl-1,3,4-thiadiazol-2-yl)carbamoyl)-1H-pyrazol-1-yl)phenyl)hydrazono)butanoate (7)] | 710 | 208
CCCC(=O)/C(=N/Nc1cccc(-n2nc(C(=O)Nc3nnc(S(N)(=O)=O)s3)c(C(=O)Nc3nnc(S(N)(=O)=O)s3)c2-c2ccccc2)c1)C(=O)OCC [Ethyl 3-oxo-2-(2-(3-(5-phenyl-3,4-bis((5-sulfamoyl-1,3,4-thiadiazol-2-yl)carbamoyl)-1H-pyrazol-1-yl)phenyl)hydrazono)hexanoate (11)] | 246 | 84
CCOC(=O)/C(=N\Nc1cccc(-n2nc(C(=O)Nc3nnc(S(N)(=O)=O)s3)c(C(=O)Nc3nnc(S(N)(=O)=O)s3)c2-c2ccccc2)c1)C(=O)c1ccccc1 [Ethyl 3-oxo-3-phenyl-2-(2-(3-(5-phenyl-3,4-bis((5-sulfamoyl-1,3,4-thiadiazol-2-yl)carbamoyl)-1H-pyrazol-1-yl)phenyl)hydrazono)propanoate (9)] | 487 | 435
COC(=O)C(/N=N/c1cccc(-n2nc(C(=O)Nc3nnc(S(N)(=O)=O)s3)c(C(=O)Nc3nnc(S(N)(=O)=O)s3)c2-c2ccccc2)c1)S(=O)(=O)c1ccccc1 (centres undefined) [Methyl 2-((3-(5-phenyl-3,4-bis((5-sulfamoyl-1,3,4-thiadiazol-2-yl)carbamoyl)-1H-pyrazol-1-yl)phenyl)diazenyl)-2-(phenylsulfonyl)acetate (15)] | 318 | 92
CC(=O)/C(=N/Nc1cccc(-n2nc(C(=O)Nc3nnc(S(N)(=O)=O)s3)c(C(=O)Nc3nnc(S(N)(=O)=O)s3)c2-c2ccccc2)c1)C(=O)OC(C)(C)C [tert-Butyl 3-oxo-2-(2-(3-(5-phenyl-3,4-bis((5-sulfamoyl-1,3,4-thiadiazol-2-yl)carbamoyl)-1H-pyrazol-1-yl)phenyl)hydrazono)butanoate (12)] | 522 | 149
